Experimental data as given in patent publication US20100298141A1, “SUBSTITUTED PYRIDINE N-OXIDE HERBICIDES” (E. I. DU PONT DE NEMOURS AND COMPANY, priority 2007, published 2010).

Experiments:
corn = test: Test C pre-/postemergence test; format: in vivo, Zea mays
In short: (§1)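 Compounds in a non-phytotoxic solvent with surfactant applied preemergence to seeded pots and, at the same time, postemergence to plants 2–18 cm tall (1- to 4-leaf stage). Paddy tests: pots flooded to 3 cm, compound applied into the water, depth held throughout.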

redroot pigweed = test: Test A pre-/postemergence greenhouse test; format: in vivo, Amaranthus retroflexus; conditions: for Plant response rating, Pigweed: 0 to 100 scale where 0 is no effect and 100 is complete control; for Pigweed plant response rating: 0 to 100 scale
In short: (§2)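 Pots of loam–sand soil sown with the test species are sprayed preemergence on the soil surface; emerged seedlings (1–2 leaves, 2–10 cm) are sprayed postemergence at the same time. The vehicle is a non-phytotoxic solvent mixture with surfactant. Injury is scored visually after ~10 d in greenhouse.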

downy brome = test: Test C pre-/postemergence test; format: in vivo, Bromus tectorum
In short: as §1

yellow nutsedge = test: Test C pre-/postemergence test; format: in vivo, Cyperus esculentus
In short: as §1

wheat [1] = test: Test A pre-/postemergence greenhouse test; format: in vivo, Triticum aestivum; conditions: for Plant response rating, Wheat: 0 to 100 scale where 0 is no effect and 100 is complete control; for Wheat plant response rating: 0 to 100 scale
In short: as §2

eastern black nightshade = test: Test C pre-/postemergence test; format: in vivo, Solanum ptycanthum; conditions: for Nightshade plant response rating: preemergence, scale 0 (no effect) to 100 (complete control)
In short: as §1

johnsongrass = test: Test C pre-/postemergence test; format: in vivo, Sorghum halepense
In short: as §1

wheat [2] = test: Test C pre-/postemergence test; format: in vivo, Triticum aestivum
In short: as §1

morningglory = test: Test C pre-/postemergence test; format: in vivo, Ipomoea coccinea
In short: as §1

wild oat = test: Test C pre-/postemergence test; format: in vivo, Avena fatua
In short: as §1

velvetleaf [3] = test: Test C pre-/postemergence test; format: in vivo, Abutilon theophrasti
In short: as §1

woolly cupgrass = test: Test C pre-/postemergence test; format: in vivo, Eriochloa villosa
In short: as §1

velvetleaf [4] = test: Test A pre-/postemergence greenhouse test; format: in vivo, Abutilon theophrasti; conditions: for Plant response rating, Velvetleaf: 0 to 100 scale where 0 is no effect and 100 is complete control; for Velvetleaf plant response rating: 0 to 100 scale
In short: as §2

duck salad = test: Test C flooded paddy test; format: in vivo, Heteranthera limosa; conditions: Flood, scale 0 to 100, 0 no effect, 100 complete control, 13 to 15 days
In short: (§3)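 Test compounds are applied straight into paddy water held 3 cm above the soil surface, with that flood maintained for the whole test. After 13 to 15 days in the greenhouse, each species is scored visually relative to controls.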

giant foxtail = test: Test C pre-/postemergence test; format: in vivo, Setaria faberii
In short: as §1

rice = test: Test C flooded paddy test; format: in vivo, Oryza sativa; conditions: Flood, scale 0 to 100, 0 no effect, 100 complete control, 13 to 15 days
In short: as §3

catchweed bedstraw = test: Test C pre-/postemergence test; format: in vivo, Galium aparine
In short: as §1

[5] = 62 g ai/ha, Preemergence, scale 0 to 100
[6] = 125 g ai/ha, preemergence, scale 0 (no effect) to 100 (complete control)
[7] = Preemergence, 31 g ai/ha, scale 0 to 100 (0 no effect, 100 complete control)
[8] = preemergence, 250 g ai/ha, scale 0 (no effect) to 100 (complete control)
[9] = Postemergence, 500 g ai/ha, 0 is no effect, 100 is complete control
[10] = Preemergence, 125 g ai/ha, 0 no effect, 100 complete control

Cn1nc(C(F)(F)F)c(C(Cl)S(=O)(=O)c2cccc[n+]2[O-])c1OC(F)F (centres unmarked) [Compound 51]
Corn plant response rating (corn; [5]): 0
Corn plant response rating (corn; [6]): 50
Plant response rating, Corn (corn; [7]): 0
Corn plant response rating (corn; [8]): 50
Plant response rating, Pigweed (redroot pigweed; Postemergence, 125 g ai/ha): 60
Pigweed plant response rating (redroot pigweed; [9]): 70
Pigweed plant response rating (redroot pigweed; [10]): 100
Plant response rating, Pigweed (redroot pigweed; Preemergence, 500 g ai/ha): 100
Bromegrass, Downy plant response rating (downy brome; [5]): 0
Bromegrass, Downy plant response rating (downy brome; [6]): 0
Plant response rating, Bromegrass, Downy (downy brome; [7]): 0
Bromegrass, Downy plant response rating (downy brome; [8]): 0
Nutsedge, Yellow plant response rating (yellow nutsedge; [5]): 40
Nutsedge, Yellow plant response rating (yellow nutsedge; [6]): 40
Plant response rating, Nutsedge, Yellow (yellow nutsedge; [7]): 0
Nutsedge, Yellow plant response rating (yellow nutsedge; [8]): 100
Plant response rating, Wheat (wheat [1]; Postemergence, 125 g ai/ha): 40
Wheat plant response rating (wheat [1]; [9]): 60
Wheat plant response rating (wheat [1]; [10]): 30
Plant response rating, Wheat (wheat [1]; Preemergence, 500 g ai/ha): 50
Nightshade plant response rating (eastern black nightshade; 125 g ai/ha): 85
Plant response rating, Nightshade (eastern black nightshade; [7]): 0
Nightshade plant response rating (eastern black nightshade; 250 g ai/ha): 100
Johnsongrass plant response rating (johnsongrass; [5]): 95
Johnsongrass plant response rating (johnsongrass; [6]): 98
Plant response rating, Johnsongrass (johnsongrass; [7]): 75
Johnsongrass plant response rating (johnsongrass; [8]): 100
Wheat plant response rating (wheat [2]; [5]): 10
Wheat plant response rating (wheat [2]; [6]): 20
Plant response rating, Wheat (wheat [2]; [7]): 5
Morningglory plant response rating (morningglory; [5]): 100
Morningglory plant response rating (morningglory; [6]): 100
Plant response rating, Morningglory (morningglory; [7]): 100
Morningglory plant response rating (morningglory; [8]): 100
Oat, Wild plant response rating (wild oat; [5]): 0
Oat, Wild plant response rating (wild oat; [6]): 10
Plant response rating, Oat, Wild (wild oat; [7]): 0
Oat, Wild plant response rating (wild oat; [8]): 50
Velvetleaf plant response rating (velvetleaf [3]; [5]): 0
Velvetleaf plant response rating (velvetleaf [3]; [6]): 50
Plant response rating, Velvetleaf (velvetleaf [3]; [7]): 0
Velvetleaf plant response rating (velvetleaf [3]; [8]): 80
Cupgrass, Woolly plant response rating (woolly cupgrass; [5]): 70
Cupgrass, Woolly plant response rating (woolly cupgrass; [6]): 90
Plant response rating, Cupgrass, Woolly (woolly cupgrass; [7]): 0
Cupgrass, Woolly plant response rating (woolly cupgrass; [8]): 100
Plant response rating, Velvetleaf (velvetleaf [4]; Postemergence, 125 g ai/ha): 60
Velvetleaf plant response rating (velvetleaf [4]; [9]): 70
Velvetleaf plant response rating (velvetleaf [4]; [10]): 60
Plant response rating, Velvetleaf (velvetleaf [4]; Preemergence, 500 g ai/ha): 70
Plant response rating, Ducksalad (duck salad; 62 g ai/ha): 35
Plant response rating, Ducksalad (duck salad; 250 g ai/ha): 80
Foxtail, Giant plant response rating (giant foxtail; [5]): 50
Foxtail, Giant plant response rating (giant foxtail; [6]): 90
Plant response rating, Foxtail, Giant (giant foxtail; [7]): 10
Foxtail, Giant plant response rating (giant foxtail; [8]): 100
Plant response rating, Rice (rice; 62 g ai/ha): 25
Plant response rating, Rice (rice; 250 g ai/ha): 55
Galium plant response rating (catchweed bedstraw; [5]): 85
Galium plant response rating (catchweed bedstraw; [6]): 95
Plant response rating, Galium (catchweed bedstraw; [7]): 80
Galium plant response rating (catchweed bedstraw; [8]): 95
